According to the supplement of paper PMC10307832:

Key:
Assay in all cases: relative viability (nuclei count vs DMSO), 5 days (fraction); higher = more cells survive
BMX-IN-1 + Bortezomib = compound: C=CC(=O)Nc1cc(-n2c(=O)ccc3cnc4ccc(-c5ccc(NS(C)(=O)=O)cc5)cc4c32)ccc1C [BMX-IN-1] + CC(C)C[C@H](NC(=O)[C@H](Cc1ccccc1)NC(=O)c1cnccn1)B(O)O [Bortezomib] (partner 0.002 µM)
Outline: (§1)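 Nuclei were stained with Hoechst during a one-step fixation (final 0.05% Triton X-100, 1% formaldehyde, 1 ug/ml Hoechst) carried out 5 days after dosing, then counted on 4× images. The cells, lung cancer lines in 1536-well plates, had been dosed by pin tool the day after seeding with one drug alone or a fixed anchor-drug dose plus five library-drug doses (not always all listed) in √10 steps. Relative viability is the nuclei count in treated wells divided by that in vehicle wells, and each value is the median of duplicate plates.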

BMX-IN-1 + Crizotinib = compound: C=CC(=O)Nc1cc(-n2c(=O)ccc3cnc4ccc(-c5ccc(NS(C)(=O)=O)cc5)cc4c32)ccc1C [BMX-IN-1] + C[C@@H](Oc1cc(-c2cnn(C3CCNCC3)c2)cnc1N)c1c(Cl)ccc(F)c1Cl [Crizotinib] (partner 1 µM)
Outline: as §1

Ibrutinib + Bortezomib = compound: C=CC(=O)N1CCC[C@@H](n2nc(-c3ccc(Oc4ccccc4)cc3)c3c(N)ncnc32)C1 [Ibrutinib] + CC(C)C[C@H](NC(=O)[C@H](Cc1ccccc1)NC(=O)c1cnccn1)B(O)O [Bortezomib] (partner 0.002 µM)
Outline: as §1

BMX-IN-1 + Dasatinib = compound: C=CC(=O)Nc1cc(-n2c(=O)ccc3cnc4ccc(-c5ccc(NS(C)(=O)=O)cc5)cc4c32)ccc1C [BMX-IN-1] + Cc1nc(Nc2ncc(C(=O)Nc3c(C)cccc3Cl)s2)cc(N2CCN(CCO)CC2)n1 [Dasatinib] (partner 0.075 µM)
Outline: as §1

| Cell Line | relative viability (BMX-IN-1 + Bortezomib; first compound 0.02 µM) | relative viability (BMX-IN-1 + Bortezomib; first compound 0.2 µM) | relative viability (BMX-IN-1 + Bortezomib; first compound 0.6325 µM) | relative viability (BMX-IN-1 + Bortezomib; first compound 2 µM) | relative viability (BMX-IN-1 + Crizotinib; first compound 0.02 µM) | relative viability (BMX-IN-1 + Crizotinib; first compound 0.2 µM) | relative viability (BMX-IN-1 + Crizotinib; first compound 0.6325 µM) | relative viability (BMX-IN-1 + Crizotinib; first compound 2 µM) | relative viability (Ibrutinib + Bortezomib; first compound 0.01581 µM) | relative viability (Ibrutinib + Bortezomib; first compound 0.05 µM) | relative viability (Ibrutinib + Bortezomib; first compound 0.1581 µM) | relative viability (Ibrutinib + Bortezomib; first compound 0.5 µM) | relative viability (BMX-IN-1 + Dasatinib; first compound 0.02 µM) | relative viability (BMX-IN-1 + Dasatinib; first compound 0.2 µM) | relative viability (BMX-IN-1 + Dasatinib; first compound 0.6325 µM) | relative viability (BMX-IN-1 + Dasatinib; first compound 2 µM) | relative viability (Ibrutinib + Bortezomib; first compound 0.005 µM) |
| --- | --- | --- | --- | --- | --- | --- | --- | --- | --- | --- | --- | --- | --- | --- | --- | --- | --- |
| NCI-H2085 | 1.14 | 0.998 | 1.2 | 1.16 | 0.98 | 0.815 | 0.897 | 0.855 | 0.954 | 0.983 | 0.963 | 0.963 | 0.246 | 0.223 | 0.236 | 0.227 | – |
| HCC-78 | 0.534 | 0.474 | 0.432 | 0.546 | 0.379 | 0.347 | 0.335 | 0.405 | 0.453 | 0.58 | 0.496 | 0.488 | 0.379 | 0.421 | 0.37 | 0.462 | 0.513 |
| NCI-H647 | 1.15 | 1.42 | 1.24 | 1.01 | 1.41 | 1.45 | 1.1 | 0.937 | 0.86 | 0.991 | 1.04 | 1.02 | 0.197 | 0.24 | 0.277 | 0.174 | 0.823 |
| NCI-H1299 | 0.968 | 1.08 | 1.13 | 0.97 | 0.798 | 1.03 | 0.97 | 1.01 | 1 | 0.995 | 1.02 | 1.04 | – | – | – | – | 1.02 |
| LU99A | 1.2 | 1.18 | 1.2 | 1.12 | 0.639 | 0.567 | 0.547 | 0.579 | 0.97 | 1.28 | 1.21 | 1.2 | 0.646 | 0.56 | 0.793 | 0.555 | 1.01 |
| A549 | – | – | – | – | 0.986 | 1.22 | 0.945 | 0.738 | – | – | – | – | – | – | – | – | – |
| HARA | 1.14 | 1.62 | 1.16 | 1.22 | 1.39 | 1.24 | 1.16 | 1.09 | 1.14 | 0.987 | 0.976 | 0.937 | 0.258 | 0.305 | 0.342 | 0.244 | 1.02 |
| NCI-H1944 | – | – | – | – | 1.21 | 1.28 | 1.21 | 1.07 | – | – | – | – | 0.203 | 0.188 | 0.222 | 0.206 | – |
| LCLC-103H | 1.11 | 0.972 | 1.25 | 0.932 | 1.19 | 1.05 | 1.07 | 1.07 | 1.01 | 1.07 | 0.986 | 1.05 | 0.519 | 0.477 | 0.522 | 0.535 | 0.999 |
| NCI-H1792 | 1.25 | 1.4 | 0.912 | 0.956 | 0.886 | 1.7 | 0.855 | 0.977 | 0.984 | 1 | 0.85 | 0.93 | – | 0.817 | 0.714 | 0.862 | – |
| Calu-6 | 1.03 | 1.09 | 1.31 | 1.07 | 0.925 | 0.886 | 0.927 | 0.988 | 0.959 | 0.934 | 1.11 | 0.932 | – | – | – | – | 0.992 |
| SW 900 | – | – | – | – | – | – | – | – | – | – | – | – | 0.568 | 0.835 | 0.521 | 0.714 | – |
| LOU-NH91 | – | 0.512 | 0.459 | 0.49 | – | 0.764 | 0.752 | 0.731 | 0.553 | 0.513 | 0.476 | 0.478 | 0.553 | – | 0.657 | 0.559 | 0.509 |
| HCC-366 | 1.88 | 1.78 | 1.28 | 1.09 | 0.582 | 1.01 | 0.586 | 0.703 | 0.977 | 1.09 | 1.01 | 1.07 | 0.907 | 0.741 | 0.618 | 0.71 | 1.03 |
| CAL-12T | 0.92 | 0.785 | 1.17 | 0.949 | 0.798 | 0.827 | 0.618 | 0.562 | 0.915 | 0.836 | 0.884 | 0.693 | 0.353 | 0.444 | 0.528 | 0.366 | 0.988 |
| NCI-H1355 | 1.26 | 1.21 | 1.4 | 1.22 | 1.27 | 1.17 | 1.08 | 1.13 | 1.14 | 1.18 | 1.2 | 1.16 | 0.772 | 0.777 | 0.768 | 0.785 | – |
| ABC-1 | 0.34 | 0.302 | 0.244 | 0.306 | 1.22 | 1.27 | 0.69 | 0.904 | 0.271 | 0.33 | 0.33 | 0.306 | 0.465 | 0.545 | 0.598 | 0.601 | 0.36 |
| NCI-H2405 | 0.989 | 1.1 | 0.999 | 1.01 | 0.939 | 0.892 | 0.903 | 0.886 | 0.977 | 0.948 | 0.856 | 0.767 | 0.225 | 0.501 | 0.223 | 0.19 | 1.07 |
| NCI-H650 | 1.06 | 0.762 | 0.783 | 0.749 | 0.881 | 0.863 | 0.707 | 0.774 | 0.706 | – | 1.12 | 0.932 | 0.49 | 0.469 | 0.517 | 0.478 | – |
| NCI-H2228 | 1.66 | 1.03 | 1.47 | 1.12 | 0.52 | 0.354 | 0.417 | 0.495 | 0.989 | 1.13 | 1.37 | 0.92 | 0.497 | 0.672 | 0.593 | 0.561 | 0.996 |
| EPLC-272H | 1.28 | 1.09 | 0.872 | 0.887 | 1.04 | 0.968 | 0.96 | 0.96 | 0.881 | 0.924 | 0.839 | 0.753 | 0.354 | 0.266 | 0.393 | 0.314 | – |
